Results as given in patent US6737240B1, “Methods of screening for a multi-drug resistance conferring peptide” (Rigel Pharmaceuticals, Inc., priority 1999, dated 2004).

Test system: LRP
Experiment: LRP expression in Taxol-resistant clone
Assay type: cell-based
Conditions: Taxol-resistant RGP8.5 clone; data not shown

Substance: MGEFLIVKVVWGRMVCWV-LVVRRFVLVIVLENSLSSNQGPP [RGP8.5]
- expression of LRP: undetectable
